# Test results as given in patent US8394832B2, “Methods and compositions using immunomodulatory compounds for the treatment of immunodeficiency disorders” (Celgene Corporation, priority 2004, dated 2013).
# What was measured:
# [1] = system: IgE synthesis; assay: IgE ELISA of human PBMC treated with anti CD40 and IL-4 for three weeks; assay type: cell-based; settings: 504 h, human PBMCs in presence of CD40+IL-4 for three weeks (FIGS. 11A and B), read-out: IC50 of inhibition of IgE synthesis
# Protocol: Human PBMCs (1×10^6/ml) were treated with immunomodulatory compounds in presence of anti-CD40 (2 ug/ml) and IL-4 (40 ng/ml) for three weeks. Fifty microliter of supernatant was used for IgE ELISA, following the manufacturer's instruction. The absorbance was read by ELISA reader at OD=450 nm.
# IL-4 is a unique signal for B cells to produce IgE during the immunoglobulin class switch. To assess whether immunomodulatory compounds can regulated IgE synthesis, 1,3-dioxo-(2,6-dioxopiperidin-3-yl)-4-aminoisoindoline or 1-oxo-(2,6-dioxopiperidin-3-yl)-4-aminoisoindoline was incubated with human PBMCs in presence of CD40+IL-4 for three weeks. […] (FIGS. 11A and B).
# Treatment of PBMC: 200 μl of 1×10^6/ml human PBMC were plated in 96 well plate, and the cells were pretreated with IMiDs at indicated concentrations (60, 6, 0.6, 0.06, 0.006, 0.0006 uM) for 30 minutes. Anti CD40 (#AHS4002, Biosource, 2 μg/ml) and IL-4 (#200-04, Pepro Tech, 40 ng/ml) were added to each well. Human PBMC in presence of IMiDs, anti CD40 and IL-4 were incubated for three weeks. Fifty microliters of supernatant was subjected to IgE ELISA.
# IgE ELISA: The IgE ELISA Quantitation Kit was purchased from Bethyl Laboratories, Inc. (#E80-108). […] The ELISA plate was read at OD=450 nm in ELISA plate reader.
# [2] = system: CD69; assay: FACS analysis of CD69 expression in CD19+ B cells; assay type: cell-based, human
# Protocol: (§1) Human buffy coat (50 ml) was diluted with 50 ml sterile PBS (Ca^++, Mg^++ free), and mixed gently. A 25 ml aliquot of diluted buffy coat was transferred to each 50 ml centrifuge tube, and Histopaque-1077 (14 ml, #1077-1, Sigma) was gently layered into the bottom of the tube. The sample was centrifuged at 2,000 rpm for 30 min at room temperature. The interface containing mononuclear cells was transferred into 50 ml centrifuge tube, and washed once with PBS (1200 rpm, 5 min). The supernatant was discarded. Cell pellet was resuspended in Miltenyi buffer. Anti-CD19^+ microbeads were added to the suspension (10^7 cells in 80 μl of buffer, 20 μl antibody beads for 10^7 cells) and incubated for 15 min at 4° C. Cell pellet was washed once and resuspended in 1 ml Miltenyi buffer. The cell suspension was added to the magnetic column, washed with 10 ml Miltenyi buffer in the column. CD19^+ cells are released by 1 ml Miltenyi Buffer without magnetic field. CD19^+ cells were washed twice with RPMI complete medium. B cells (2×10^5) were plated in 96 well plate.
# B cells were treated with 1,3-dioxo-(2,6-dioxopiperidin-3-yl)-4-aminoisoindoline (FIG. 3A) or 1-oxo-(2,6-dioxopiperidin-3-yl)-4-aminoisoindoline (FIG. 3B) in presence of anti IgM, anti CD40 and IL-4 for 3 days. The suspension of B cells was washed by PBS once, and incubated with FITC conjugated anti human CD69 for 30 min in the dark. B cells were subject to FACS analysis using flow cytometer (EPICS XL-MCL, Beckman Coulter Company).
# To assess whether the effects of immunomodulatory compounds on IL-4 signaling impact on IL-4 mediated B cell activation, FACS array of immediate early expression marker CD69 expression at triplicates and six doses was examined using 1,3-dioxo-(2,6dioxopiperidin-3-yl)-4-aminoisoindoline or 1-oxo-(2,6-dioxopiperidin-3-yl)-4-aminoisoindoline. […] Thus, it is clear that immunomodulatory compounds have no impact on this process.
# [3] = system: B cells; assay: B cell proliferation by BrdU ELISA; assay type: cell-based, human; settings: 3 days (FIG. 7A)
# Protocol: as §1
# B cells were pretreated with 1,3-dioxo-(2,6-dioxopiperidin-3-yl)-4-aminoisoindoline or 1-oxo-(2,6-dioxopiperidin-3-yl)-4-aminoisoindoline at the concentrations of 60 μM, 6 μM, 0.6 μM, 0.06 μM, 0.006 μM, and 0.0006 μM for 30 min, then were added 2 μg/ml of anti-IgM, 2 μg/ml of anti CD40, 40 ng/ml IL-4, 100 ng/ml of recombinant BAFF, and/or 0.5 μg/ml of LPS. B cells were typically treated with the immunomodulatory compound alone or in presence of one or more of above stimuli for 3 days. Stimulated B cells with or without the treatment with immunomodulatory compound were used for cell proliferation assay and cytokines analysis.
# The crosslinking of B cell receptor antigen (“BCR”) is the primary signal for B cell activation in response to antigen, and is critical in initializing subsequent B cell activation, proliferation, and differentiation. To assess B cell activation, B cells were treated with 1,3-dioxo-(2,6-dioxopiperidin-3-yl)-4-aminoisoindoline or 1-oxo-(2,6-dioxopiperidin-3-yl)-4-aminoisoindoline in presence of stimuli for 3 days. 25 μl BrdU was added to 250 μl cell culture 24 hours before harvesting cells. B cells were dried at 60° C. after removal of labeling supernatant. 100 μl FixDenat solution was added to fix cells for 30 min at room temperature. FixDenat solution was removed by tapping plate, then 100 μl anti-BrdU-POD was added each well for 90 min, at room temperature, and the plate was washed three 3 times. 100 μl of substrate was added to plate for 10 min, then 100 μl stop solution was added. Absorbance was measured by using an ELISA microplate reader (Molecular Devices) at OD 450 nm. […]
# [4] = system: CD80; assay: FACS analysis of CD80 expression on B cells; assay type: cell-based, human; settings: normal B cells, 1 μM
# Protocol: as §1
# B cells were treated with 1 μM 1,3-dioxo-(2,6-dioxopiperidin-3-yl)-4-aminoisoindoline in presence of LPS; CD40 ligand and IL-4; or BAFF for 3 days. The suspension of B cells was washed by PBS once, and incubated with FITC conjugated anti human CD40, PE conjugated anti human CD80, or PerCP-Cy5.5 conjugated anti human HLA-DR for 30 min in the dark. […]
smiles,measurement,setting,value
"Nc1cccc2c1C(=O)N(C1CCC(=O)NC1=O)C2=O (stereo not shown) [1,3-dioxo-(2,6-dioxopiperidin-3-yl)-4-aminoisoindoline]",IC50,[1],0.1 to 0.3 µM
same,CD69 expression,"[2]; CD19+ B cells treated with anti human IgM, anti human CD40 and IL-4, 3 days (FIGS. 3A, 3B)",dose-dependently enhanced
same,CD69 expression,"[2]; IL-4 stimulated CD19+ B cells, triplicates, six doses (FIGS. 10A and B)",neither immunomodulatory compound inhibited
same,B cell proliferation,[3]; combined with IgM (anti-IgM),enhance
same,effect on B cell activation/proliferation,[3]; compound alone,minimal effect
same,number of B cells expressing CD80,"[4]; CD40 ligand and IL-4, 3 days (FIG. 1B)",increased
same,CD80 expression,"[4]; in the presence of CD40 ligand and IL-4, 3 days (FIG. 1A)",increased
